Counter-ions that a name gives are not always drawn.
Target: IRAK4 (Homo sapiens (Human), UniProt Q9NWZ3)
Experiment: IRAK4 Kinase Assay (IMAP fluorescence polarization)
Format: biochemical
Conditions: GST tagged IRAK4, 100 μM ATP, 30 minutes at 25° C., IMAP FP
Excerpt: Other assays are known in the literature and could be readily performed by those of skill in the art.
The reaction is initiated by the addition of ATP.

Sequence of IRAK4 (Q9NWZ3 whole entry): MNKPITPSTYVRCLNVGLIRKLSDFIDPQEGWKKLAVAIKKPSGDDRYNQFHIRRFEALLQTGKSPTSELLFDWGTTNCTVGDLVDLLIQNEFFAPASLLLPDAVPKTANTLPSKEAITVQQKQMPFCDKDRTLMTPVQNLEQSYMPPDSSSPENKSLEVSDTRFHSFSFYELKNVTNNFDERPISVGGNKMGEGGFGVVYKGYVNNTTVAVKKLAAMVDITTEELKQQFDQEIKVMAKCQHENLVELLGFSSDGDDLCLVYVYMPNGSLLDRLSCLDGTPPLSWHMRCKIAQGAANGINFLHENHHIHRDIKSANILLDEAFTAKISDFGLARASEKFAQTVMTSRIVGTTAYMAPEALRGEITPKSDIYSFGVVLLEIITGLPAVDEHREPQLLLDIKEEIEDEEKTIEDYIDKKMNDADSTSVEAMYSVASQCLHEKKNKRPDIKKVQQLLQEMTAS

| SMILES | IC50 [nM] |
| --- | --- |
| Cn1cc(NC(=O)c2ccc3cccnn23)c(C(N)=O)n1 [Example 43, N-(3-carbamoyl-1-methyl-1H-pyrazol-4-yl)pyrrolo[1,2-b]pyridazine-7-carboxamide trifluoroacetate] | 27 |
| NC(=O)c1ccncc1NC(=O)c1cnn2cccnc12 [Example 45, N-(4-carbamoylpyridin-3-yl)pyrazolo[1,5-a]pyrimidine-3-carboxamide hydrochloride] | 8100 |
| Cn1cc(NC(=O)c2csc3nccnc23)c(C(N)=O)n1 [Example 56, N-(3-Carbamoyl-1-methyl-1H-pyrazol-4-yl)thieno[2,3-b]pyrazine-7-carboxamide] | 69 |
| NC(=O)c1nn(-c2cccnc2)cc1NC(=O)c1cnn2cccnc12 [Example 44, N-(3-carbamoyl-1-pyridin-3-yl-1H-pyrazol-4-yl)pyrazolo[1,5-a]pyrimidine-3-carboxamide] | 59 |
| CCn1cc(NC(=O)c2ccc3cnc(N[C@@H]4CCCC[C@@H]4N)nn23)c(C(N)=O)n1 [Example 62, 2-{[(1R,2S)-2-aminocyclohexyl]amino}-N-(3-carbamoyl-1-ethyl-1H-pyrazol-4-yl)pyrrolo[2,1-f][1,2,41triazine-7-carboxamide trifluoroacetate] | 1 |
| NC(=O)c1nn(-c2ccncc2)cc1NC(=O)c1cnn2ccc(N3CCNCC3)nc12 [Example 34, N-(3-carbamoyl-1-pyridin-4-yl-1H-pyrazol-4-yl)-5-piperazin-1-ylpyrazolo[1,5-a]pyrimidine-3-carboxamide trifluoroacetate] | 25 |
| NCCNc1ncc2ccc(C(=O)Nc3cn(CCO)nc3C(N)=O)n2n1 [Example 59, 2-[(2-aminoethyl)amino]-N-[3-carbamoyl-1-(2-hydroxyethyl)-1H-pyrazol-4-yl]pyrrolo[2,1-f][1,2,4]triazine-7-carboxamide trifluoroacetate] | 2 |
| CN1CCCC(n2cc(NC(=O)c3cnn4ccc(N[C@H]5CCCC[C@H]5N)nc34)c(C(N)=O)n2)C1 (relative stereo) [Example 10, 5-{[cis-2-aminocyclohexyl]amino}-N-[3-carbamoyl-1-(1-methylpiperidin-3-yl)-1H-pyrazol-4-yl]pyrazolo[1,5-a]pyrimidine-3-carboxamide trifluoroacetate] | 25 |
| NC(=O)c1cnccc1NC(=O)c1cnn2cccnc12 [Example 49, N-(3-carbamoylpyridin-4-yl)pyrazolo[1,5-a]pyrimidine-3-carboxamide hydrochloride] | 710 |
| NC(=O)c1ncccc1NC(=O)c1cnn2cccnc12 [Example 41, N-(2-Carbamoylpyridin-3-yl)pyrazolo[1,5-a]pyrimidine-3-carboxamide] | 4400 |
| NC(=O)c1cc(Br)ccc1NC(=O)c1cnn2cccnc12 [Example 55, N-(4-bromo-2-carbamoylphenyl)pyrazolo[1,5-a]pyrimidine-3-carboxamide hydrochloride] | > 5000 |
| NC(=O)c1n[nH]cc1NC(=O)c1cnn2cccnc12 [Example 53, N-(3-carbamoyl-1H-pyrazol-4-yl)pyrazolo[1,5-a]pyrimidine-3-carboxamide trifluoroacetate] | 700 |
| CC(C)(C)OC(=O)N1CCC(n2cc(NC(=O)c3cnn4cccnc34)c(C(N)=O)n2)CC1 [Example 46, tert-butyl 4-{3-carbamoyl-4-[(pyrazolo[1,5-a]pyrimidin-3-ylcarbonyl)amino]-1H-pyrazol-1-yl}piperidine-1-carboxylate] | 670 |
| NC(=O)c1ccccc1NC(=O)c1cnn2cccnc12 [Example 52, N-(2-carbamoylphenyl)pyrazolo[1,5-a]pyrimidine-3-carboxamide hydrochloride] | 7600 |
| CNS(=O)(=O)c1ccc(-n2cc(NC(=O)c3cnn4ccc(N5CCNCC5)nc34)c(C(N)=O)n2)cc1 [Example 33, N-{3-Carbamoyl-1-[4-(methylsulfamoyl)phenyl]-1H-pyrazol-4-yl}-5-piperazin-1-ylpyrazolo[1,5-a]pyrimidine-3-carboxamide] | 4 |
| NC(=O)c1nn(-c2cccnc2)cc1NC(=O)c1cnn2ccc(N3CCNCC3)nc12 [Example 36, N-(3-carbamoyl-1-pyridin-3-yl-1H-pyrazol-4-yl)-5-piperazin-1-ylpyrazolo[1,5-a]pyrimidine-3-carboxamide trifluoroacetate] | 33 |

Next, values leading:

| IC50 [nM] | SMILES |
| --- | --- |
| 3 | NC(=O)Cn1cc(NC(=O)c2cnn3ccc(N[C@@H]4CCCC[C@@H]4N)nc23)c(C(N)=O)n1 [Example 32, 5-{[(1R,2S)-2-Aminocyclohexyl]amino}-N-[1-(2-amino-2-oxoethyl)-3-carbamoyl-1H-pyrazol-4-yl]pyrazolo[1,5-a]pyrimidine-3-carboxamide] |
| 33 | Cn1cc(NC(=O)c2cnn3ccc(NC4CCCNC4)nc23)c(C(N)=O)n1 (stereo not shown) [Example 15, N-(3-carbamoyl-1-methyl-1H-pyrazol-4-yl)-5-(piperidin-3-ylamino)pyrazolo[1,5-a]pyrimidine-3-carboxamide hydrochloride] |
| 0.6 | Cn1cc(NC(=O)c2cnn3ccc(N[C@@H]4CCOC[C@@H]4N)nc23)c(C(N)=O)n1 [Example 2, 5-{[(3R,4R)-3-aminotetrahydro-2H-pyran-4-yl]amino}-N-(3-carbamoyl-1-methyl-1H-pyrazol-4-yl)pyrazolo[1,5-a]pyrimidine-3-carboxamide trifluoroacetate] |
| 650 | CS(=O)(=O)N1CCC(n2cc(NC(=O)c3cnn4cccnc34)c(C(N)=O)n2)CC1 [Example 48, N-{3-carbamoyl-1-[1-(methylsulfonyl)piperidin-4-yl]-1H-pyrazol-4-yl}pyrazolo[1,5-a]pyrimidine-3-carboxamide] |
| 240 | Cn1cc(NC(=O)c2cnn3ccc(N4CCOCC4)nc23)c(C(N)=O)n1 [Example 30, N-(3-carbamoyl-1-methyl-1H-pyrazol-4-yl)-5-morpholin-4-ylpyrazolo[1,5-a]pyrimidine-3-carboxamide hydrochloride] |
| 0.6 | CCn1cc(NC(=O)c2cnn3ccc(N[C@@H]4CCCC[C@@H]4N)nc23)c(C(N)=O)n1 [Example 21, 5-{[(1R,2S)-2-Aminocyclohexyl]amino}-N-(3-carbamoyl-1-ethyl-1H-pyrazol-4-yl)pyrazolo[1,5-a]pyrimidine-3-carboxamide] |
| 2 | CN1CCCC(Cn2cc(NC(=O)c3cnn4ccc(N[C@@H]5CCCC[C@@H]5N)nc34)c(C(N)=O)n2)C1 (stereo partly drawn) [Example 25, 5-{[(1R,2S)-2-aminocyclohexyl]amino}-N-{3-carbamoyl-1-[(1-methylpiperidin-3-yl)methyl]-1H-pyrazol-4-yl}pyrazolo[1,5-a]pyrimidine-3-carboxamide trifluoroacetate] |
| 1 | NC(=O)c1nn(CCO)cc1NC(=O)c1cnn2ccc(N[C@@H]3CCCC[C@@H]3N)nc12 [Example 23, 5-{[(1R,2S)-2-aminocyclohexyl]amino}-N-[3-carbamoyl-1-(2-hydroxyethyl)-1H-pyrazol-4-yl]pyrazolo[1,5-a]pyrimidine-3-carboxamide trifluoroacetate] |
| 2 | Cn1cc(NC(=O)c2cnn3ccc(NC4CCCCCC4N)nc23)c(C(N)=O)n1 (stereo not shown) [Example 13, 5-[(2-aminocycloheptyl)amino]-N-(3-carbamoyl-1-methyl-1H-pyrazol-4-yl)pyrazolo[1,5-a]pyrimidine-3-carboxamide] |
| 210 | Cn1cc(NC(=O)c2cnn3ccc(NC4CCCCC4O)nc23)c(C(N)=O)n1 (stereo not shown) [Example 27, N-(3-carbamoyl-1-methyl-1H-pyrazol-4-yl)-5-[(2-hydroxycyclohexyl)amino]pyrazolo[1,5-a]pyrimidine-3-carboxamide] |
| 180 | Cn1cc(NC(=O)c2cnn3ccc(NC4CCCCC4)nc23)c(C(N)=O)n1 [Example 26, N-(3-carbamoyl-1-methyl-1H-pyrazol-4-yl)-5-(cyclohexylamino)pyrazolo[1,5-a]pyrimidine-3-carboxamide trifluoroacetate] |
| 31 | Cn1cc(NC(=O)c2cnn3ccc(N[C@H]4COCC[C@H]4N)nc23)c(C(N)=O)n1 [Example 1, 5-(((3R,4R)-4-Aminotetrahydro-2H-pyran-3-yl)amino)-N-(3-carbamoyl-1-methyl-1H-pyrazol-4-yl)pyrazolo[1,5-a]pyrimidine-3-carboxamide] |
| 2 | CN1CCC(n2cc(NC(=O)c3cnn4ccc(N[C@H]5CCCC[C@H]5N)nc34)c(C(N)=O)n2)CC1 (relative stereo) [Example 19, 5-{[cis-2-Aminocyclohexyl]amino}-N-[3-carbamoyl-1-(1-methylpiperidin-4-yl)-1H-pyrazol-4-yl]pyrazolo[1,5-a]pyrimidine-3-carboxamide] |
| 2 | CS(=O)(=O)N1CCC(n2cc(NC(=O)c3cnn4ccc(N[C@H]5CCCC[C@H]5N)nc34)c(C(N)=O)n2)CC1 (relative stereo) [Example 18, 5-{[cis-2-Aminocyclohexyl]amino}-N-{3-carbamoyl-1-[1-(methylsulfonyl)piperidin-4-yl]-1H-pyrazol-4-yl}pyrazolo[1,5-a]pyrimidine-3-carboxamide] |
| 3 | COCCn1cc(NC(=O)c2cnn3ccc(N[C@@H]4CCCC[C@@H]4N)nc23)c(C(N)=O)n1 [Example 24, 5-{[(1R,2S)-2-aminocyclohexyl]amino}-N-[3-carbamoyl-1-(2-methoxyethyl)-1H-pyrazol-4-yl]pyrazolo[1,5-a]pyrimidine-3-carboxamide] |
| 0.8 | NC(=O)c1nn(-c2cccnc2)cc1NC(=O)c1cnn2ccc(N[C@H]3CCCC[C@H]3N)nc12 (relative stereo) [Example 6, 5-{[cis-2-aminocyclohexyl]amino}-N-(3-carbamoyl-1-pyridin-3-yl-1H-pyrazol-4-yl)pyrazolo[1,5-a]pyrimidine-3-carboxamide] |
| 120 | Cn1cc(NC(=O)c2cnn3ccc(NC4CCNC4)nc23)c(C(N)=O)n1 (stereo not shown) [Example 14, N-(3-carbamoyl-1-methyl-1H-pyrazol-4-yl)-5-(pyrrolidin-3-ylamino)pyrazolo[1,5-a]pyrimidine-3-carboxamide hydrochloride] |
| 270 | Cn1cc(NC(=O)c2cnn3ccc(NCC4CNC(=O)C4)nc23)c(C(N)=O)n1 (stereo not shown) [Example 29, N-(3-carbamoyl-1-methyl-1H-pyrazol-4-yl)-5-{[(5-oxopyrrolidin-3-yl)methyl]amino}pyrazolo[1,5-a]pyrimidine-3-carboxamide] |
